Assay results: PubChem BioAssay (NCI)
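Tested at 5 concentrations; 48 h exposure; 96-well plates; endpoints linearly interpolated, else capped at highest concentration. The concentration for 50% growth inhibition is given as GI50. TGI: concentration producing complete growth inhibition.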

Columns and labels:
Assay in all cases: NCI anticancer screen, dose series, 48 h
HL-60(TB) leukemia = tested on: HL-60(TB) leukemia
SF-268 CNS = tested on: SF-268 CNS
K-562 leukemia = tested on: K-562 leukemia
NCI-H522 lung = tested on: NCI-H522 lung
CAKI-1 renal = tested on: CAKI-1 renal
OVCAR-4 ovarian = tested on: OVCAR-4 ovarian
SR leukemia = tested on: SR leukemia
MALME-3M melanoma = tested on: MALME-3M melanoma
NCI-H226 lung = tested on: NCI-H226 lung
HOP-62 NSCLC = tested on: HOP-62 NSCLC

| SMILES | TGI (HL-60(TB) leukemia) [µM] | TGI (SF-268 CNS) [µM] | TGI (K-562 leukemia) [µM] | TGI (NCI-H522 lung) [µM] | TGI (CAKI-1 renal) [µM] | TGI (OVCAR-4 ovarian) [µM] | TGI (SR leukemia) [µM] | TGI (MALME-3M melanoma) [µM] | TGI (NCI-H226 lung) [µM] | TGI (HOP-62 NSCLC) [µM] | GI50 (HL-60(TB) leukemia) [µM] | GI50 (SF-268 CNS) [µM] | GI50 (K-562 leukemia) [µM] | GI50 (NCI-H522 lung) [µM] | GI50 (CAKI-1 renal) [µM] | GI50 (OVCAR-4 ovarian) [µM] | GI50 (SR leukemia) [µM] | GI50 (MALME-3M melanoma) [µM] | GI50 (NCI-H226 lung) [µM] | GI50 (HOP-62 NSCLC) [µM] |
| --- | --- | --- | --- | --- | --- | --- | --- | --- | --- | --- | --- | --- | --- | --- | --- | --- | --- | --- | --- | --- |
| COc1ccc(CCN2C(=O)C=CC2=O)cc1OC | 21.5 | 54.4 | > 100 | 3.17 | 27.4 | 5.07 | 6.7 | 29.8 | 13 | 53.8 |  |  |  |  |  |  |  |  |  |  |
| COc1cc(O)c2c(O)c3c(c4c2c1[C@]1(C4)C(C)=CCCC1(C)C)[C@H](O)[C@@]1(O)CC(=O)C(C(N)=O)=C(O)[C@@]1(O)C3=O | 0.485 | 1.81 | 1.52 | 0.332 | 0.972 | 1.39 | 1.45 | 0.675 | 0.951 | 1.51 |  |  |  |  |  |  |  |  |  |  |
| O=c1c2cccc(Cl)c2sc2c(NCCCNCCO)nc3ccccc3c12 | 5.49 | 16.7 | 4.03 | 4.42 | 17.6 | 19.6 | 5.97 | 3.15 | 23.9 | 17.1 | 2.4 | 3.66 | 1.81 | 1.99 | 3.79 | 5.43 | 1.6 | 1.61 | 6.24 | 2.87 |
| Cc1cc(NS(=O)(=O)c2ccc(N=Nc3cc(N=Nc4ccc(S(=O)(=O)Nc5cc(C)nc(C)n5)cc4)c4c(NC(=O)C(Cl)Cl)cccc4c3OC(=O)C(Cl)Cl)cc2)nc(C)n1 (tested in a mixture with another compound) | 52.4 | 98.3 | > 100 | 38.5 | 78.6 | 43.7 | 94.8 | 40.8 | 44.9 | 78.8 |  |  |  |  |  |  |  |  |  |  |
| Cn1cc(-c2nc(-c3c[nH]c4ncccc34)cs2)c2cc(F)ccc21 | 15.6 | 22.5 | > 22.9 | 9.89 | 8.44 | 22.2 | 7.8 | 13.4 | 25.9 | 16.5 | 3.21 | 3.32 | 2.19 | 2.7 | 2.2 | 0.0689 | 2.44 | 2.73 | 4.63 | 4.11 |
| COc1cc2c3c(n(CCCCOC(=O)C(F)(F)F)c(=O)c2cc1OC)-c1cc2c(cc1C3=O)OCO2 | > 100 | > 100 | > 100 | > 100 | > 100 | > 100 | 13.4 | > 100 | > 100 |  | > 100 | > 100 | > 50.4 |  | > 21.8 | > 100 | 0.589 | > 100 | 98.6 | 10.4 |
| Cn1cc(C2=C(c3cccc4ccccc34)C(=O)NC2=O)c2ccccc21 | > 25 | > 25 | > 25 | 19.1 | > 22.9 | > 23.8 | > 20.9 | 24.2 | > 25 | > 25 | 10.4 | 9.17 | 10.3 | 6.53 | 5.31 | 7.21 | 7 | 9.45 | 7.7 | 18.5 |
| COc1ccc2c(c1)c(-c1ccc(-c3cn(S(=O)(=O)c4ccccc4)c4ccc(OC)cc34)s1)cn2S(=O)(=O)c1ccccc1 | > 100 | > 100 | > 100 | > 100 | > 100 | > 100 | > 100 | > 100 | > 100 | > 100 | > 100 | > 100 | > 100 | > 100 | > 100 | > 100 | > 100 | > 100 | > 100 | > 100 |
| Oc1ccc(-c2nnc3sc(-c4ccc(F)c(Oc5ccccc5)c4)nn23)cc1 | > 100 | 53.2 | > 100 | > 100 | 80.6 | > 100 | > 100 | 98.7 | 98.4 | 42.7 | > 100 | 18 | > 100 | 72.5 | 20.8 | > 100 | 29.9 | 44.4 | 24.6 | 21.2 |
| Cc1nn(-c2nc3ccccc3s2)c(C)c1Oc1ccccc1O | 18.1 | 20.8 | 19.4 | 28.9 | 22.9 | 29.5 | 2.05 | 25.6 | 26 | 23.7 | 4.02 | 5.31 | 1.94 | 5.4 | 10.9 | 10.3 | 0.536 | 12.6 | 9.07 | 10.6 |
| CCCN(CCC)C(=O)C1=Cc2ccc(-c3ccc(C(=O)N4CCCC4)cc3)cc2N=C(N)C1 | 15.6 | 46 | 26.9 | 18.8 | 40.3 | 69.5 | 18.3 | 23 | 62 | 65.4 | 3.46 | 15.5 | 4.45 | 4.68 | 7.66 | 9.45 | 4.21 | 8.32 | 12.1 | 12.6 |
| COc1cc(-c2nc(Nc3nc4ccccc4[nH]3)nc(N)c2C#N)cc(OC)c1OC | > 100 | > 100 | > 100 | 3.61 | > 60.6 | 34.7 | > 100 | > 80.1 | > 89.3 | 53.2 | 0.991 | > 53.2 | 8.45 | 0.45 | 6.04 | 12.9 | 0.23 | 21.7 | 32.7 | 5.04 |
| CCC[CH2][Sn]1([CH2]CCC)[O]C(=O)c2cc(I)cc(I)c2[O]1 | 2.22 | 2.89 | 1.25 | 0.323 | 2.15 | 2.83 | 1.7 | 2.23 | 3.29 | 4.12 | 0.4 | 1.29 | 0.284 | 0.143 | 0.637 | 1.41 | 0.279 | 1 | 1.75 | 2.13 |
